Patent US9999619B2, “Piperidin-4-yl azetidine derivatives as JAK1 inhibitors” (Incyte Corporation, priority 2010, dated 2018)

Legend:
Format in all cases: biochemical
[1] = molecular target: human JAK1 (a.a. 837-1142); test: In vitro JAK kinase assay (HTRF, phosphorylation of a biotinylated peptide), JAK1; conditions: ratio of JAK2 IC50 to JAK1 IC50, measured at 1 mM ATP
Method in brief: (§1)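 N-terminally His-tagged catalytic domains, baculovirus-expressed in insect cells and purified, were used as enzyme. Reactions ran 1 hr at room temperature and were stopped with a mix of 45 mM EDTA, 300 nM SA-APC and 6 nM Eu-Py20. The HTRF signal was read after 40 min of antibody binding.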

[2] = molecular target: human JAK1 (a.a. 837-1142) (Homo sapiens, UniProt P23458); test: as above; conditions: measured at 1 mM ATP
Method in brief: as §1

Jak2 (a.a. 828-1132) = Jak2 (a.a. 828-1132) (Homo sapiens (Human), UniProt O60674); test: In vitro JAK kinase assay (HTRF, phosphorylation of a biotinylated peptide), JAK2; conditions: measured at 1 mM ATP
Method in brief: as §1

Chain of Jak2 (a.a. 828-1132) (O60674 828-1132): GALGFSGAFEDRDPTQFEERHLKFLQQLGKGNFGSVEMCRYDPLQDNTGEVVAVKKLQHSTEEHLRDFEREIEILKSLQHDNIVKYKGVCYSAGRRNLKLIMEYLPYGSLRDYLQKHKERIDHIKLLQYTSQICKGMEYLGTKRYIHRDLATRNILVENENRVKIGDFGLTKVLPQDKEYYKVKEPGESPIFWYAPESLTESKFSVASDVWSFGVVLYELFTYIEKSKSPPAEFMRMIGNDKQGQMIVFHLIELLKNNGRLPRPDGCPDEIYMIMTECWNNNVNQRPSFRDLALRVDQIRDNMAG

Row | Structure (SMILES) | IC50 Ratio JAK2/JAK1 [1] | IC50 [2] [µM] | IC50 (Jak2 (a.a. 828-1132)) [µM]
1 | N#CCC1(n2cc(-c3ncnc4[nH]ccc34)cn2)CN(C2CCN(C(=O)c3cc(C(F)(F)F)ncc3F)CC2)C1 [Example 343, {1-{1-[5-Fluoro-2-(trifluoromethyl)isonicotinoyl]piperidin-4-yl}-3-[4-(7H-pyrrolo[2,3-d]pyrimidin-4-yl)-1H-pyrazol-1-yl]azetidin-3-yl}acetonitrile] | 5.5 | 0.005 to 0.02 | 0.05 to 0.1
2 | N#CCC1(n2cc(-c3ncnc4[nH]ccc34)cn2)CN(C2CCN(C(=O)c3ccc(-c4nc5ccccc5o4)c(F)c3)CC2)C1 [Example 137, {1-{1-[4-(1,3-benzoxazol-2-yl)-3-fluorobenzoyl]piperidin-4-yl}-3-[4-(7H-pyrrolo[2,3-d]pyrimidin-4-yl)-1H-pyrazol-1-yl]azetidin-3-y4}acetonitrile] | 6.0 | 0.02 to 0.03 | > 0.1
3 | COc1nc(CN2CCC(N3CC(CC#N)(n4cc(-c5ncnc6[nH]ccc56)cn4)C3)CC2)ccc1C#N [Example 224, 6-[(4-{3-(cyanomethyl)-3-[4-(7H-pyrrolo[2,3-d]pyrimidin-4-yl)-1H-pyrazol-1-yl]azetidin-1-yl}piperidin-1-yl)methyl]-2-methoxynicotinonitrile] | 2.4 | 0.02 to 0.03 | 0.05 to 0.1
4 | CCCOC(=O)N1CCC(N2CC(CC#N)(n3cc(-c4ncnc5[nH]ccc45)cn3)C2)CC1 [Example 386, Propyl 4-{3-(cyanomethyl)-3-[4-(7H-pyrrolo[2,3-d]pyrimidin-4-yl)-1H-pyrazol-1-yl]azetidin-1-yl}piperidine-1-carboxylate] | 7.7 | ≤ 0.005 | 0.01 to 0.05
5 | N#CCC1(n2cc(-c3ncnc4[nH]ccc34)cn2)CN(C2CCN(Cc3c(F)ccc(Cl)c3F)CC2)C1 [Example 228, {1-[1-(3-chloro-2,6-difluorobenzyl)piperidin-4-yl]-3-[4-(7H-pyrrolo[2,3-d]pyrimidin-4-yl)-1H-pyrazol-1-yl]azetidin-3-yl}acetonitrile] | 3.9 | ≤ 0.005 | ≤ 0.01
6 | N#CCC1(n2cc(-c3ncnc4[nH]ccc34)cn2)CN(C2CCN(Cc3cc4ccccc4o3)CC2)C1 [Example 232, {1-[1-(1-benzofuran-2-ylmethyl)piperidin-4-yl]-3-[4-(7H-pyrrolo[2,3-d]pyrimidin-4-yl)-1H-pyrazol-1-yl]azetidin-3-yl}acetonitrile] | 0.7 | 0.005 to 0.02 | ≤ 0.01
7 | N#CCC1(n2cc(-c3ncnc4[nH]ccc34)cn2)CN(C2CCN(C(=O)Nc3nccs3)CC2)C1 [Example 190, 4-{3-(cyanomethyl)-3-[4-(7H-pyrrolo[2,3-d]pyrimidin-4-yl)-1H-pyrazol-1-yl]azetidin-1-yl}-N-1,3-thiazol-2-ylpiperidine-1-carboxamide] | 2.1 | 0.02 to 0.03 | 0.05 to 0.1
8 | N#CCC1(n2ccc(-c3ncnc4[nH]ccc34)c2)CN(C2CCN(C(=O)c3cc(F)ccc3C(F)(F)F)CC2)C1 [Example 266, {1-{1-[5-fluoro-2-(trifluoromethyl)benzoyl]piperidin-4-yl}-3-[3-(7H-pyrrolo[2,3-d]pyrimidin-4-yl)-1H-pyrrol-1-yl]azetidin-3-yl}acetonitrile] | 6.6 | 0.005 to 0.02 | 0.05 to 0.1
9 | N#CCC1(n2cc(-c3ncnc4[nH]ccc34)cn2)CN(C2CCN(Cc3cccc(Cl)c3Cl)CC2)C1 [Example 219, {1-[1-(2,3-dichlorobenzyl)piperidin-4-yl]-3-[4-(7H-pyrrolo[2,3-d]pyrimidin-4-yl)-1H-pyrazol-1-yl]azetidin-3-yl}acetonitrile] | 2.4 | 0.005 to 0.02 | 0.01 to 0.05
10 | N#CCC1(n2cc(-c3ncnc4[nH]ccc34)cn2)CN(C2CCN(Cc3c(Cl)cncc3Cl)CC2)C1 [Example 237, {1-{1-[(3,5-dichloropyridin-4-yl)methyl]piperidin-4-yl}-3-[4-(7H-pyrrolo[2,3-d]pyrimidin-4-yl)-1H-pyrazol-1-yl]azetidin-3-yl}acetonitrile] | 2.3 | 0.005 to 0.02 | 0.01 to 0.05
11 | CCOC(=O)N1CCC(N2CC(CC#N)(n3cc(-c4ncnc5[nH]ccc45)cn3)C2)CC1 [Example 388, ethyl 4-{3-(cyanomethyl)-3-[4-(7H-pyrrolo[2,3-d]pyrimidin-4-yl)-1H-pyrazol-1-yl]azetidin-1-yl}piperidine-1-carboxylate] | 7.6 | 0.005 to 0.02 | 0.01 to 0.05
12 | N#CCC1(n2cc(-c3ncnc4[nH]ccc34)cn2)CN(C2CCN(C(=O)OCc3ccc(F)cc3F)CC2)C1 [Example 393, 2,4-difluorobenzyl 4-{3-(cyanomethyl)-3-[4-(7H-pyrrolo[2,3-d]pyrimidin-4-yl)-1H-pyrazol-1-yl]azetidin-1-yl}piperidine-1-carboxylate] | 7.1 | ≤ 0.005 | 0.01 to 0.05
13 | COc1cccc(F)c1CN1CCC(N2CC(CC#N)(n3cc(-c4ncnc5[nH]ccc45)cn3)C2)CC1 [Example 218, {1-[1-(2-fluoro-6-methoxybenzyl)piperidin-4-yl]-3-[4-(7H-pyrrolo[2,3-d]pyrimidin-4-yl)-1H-pyrazol-1-yl]azetidin-3-yl}acetonitrile] | 2.6 | 0.02 to 0.03 | 0.05 to 0.1
14 | N#CCC1(n2cc(-c3ncnc4[nH]ccc34)cn2)CN(C2CCN(C(=O)c3sccc3Cl)CC2)C1 [Example 76, {1-{1-[(3-chloro-2-thienyl)carbonyl]piperidin-4-yl}-3-[4-(7H-pyrrolo[2,3-d]pyrimidin-4-yl)-1H-pyrazol-1-yl]azetidin-3-yl}acetonitrile] | 5.5 | ≤ 0.005 | ≤ 0.01
15 | COc1cc(OC)cc(C(=O)N2CCC(N3CC(CC#N)(n4cc(-c5ncnc6[nH]ccc56)cn4)C3)CC2)c1 [Example 33, {1-[1-(3,5-dimethoxybenzoyl)piperidin-4-yl]-3-[4-(7H-pyrrolo[2,3-d]pyrimidin-4-yl)-1H-pyrazol-1-yl]azetidin-3-yl}acetonitrile] | 0.5 | ≤ 0.005 | ≤ 0.01
16 | N#CCC1(n2cc(-c3ncnc4[nH]ccc34)cn2)CN(C2CCN(C(=O)c3cc(F)c(F)c(F)c3)CC2)C1 [Example 4, {3-[4-(7H-pyrrolo[2,3-d]pyrimidin-4-yl)-1H-pyrazol-1-yl]-1-[1-(3,4,5-trifluorobenzoyl)piperidin-4-yl]azetidin-3-yl}acetonitrile] | 10.2 | 0.005 to 0.02 | 0.05 to 0.1
17 | N#CCC1(n2cc(-c3ncnc4[nH]ccc34)cn2)CN(C2CCN(C(=O)c3cnccn3)CC2)C1 [Example 14, {1-[1-(pyrazin-2-lcarbonyl)piperidin-4-yl]-3-[4-(7H-pyrrolo[2,3-d]pyrimidin-4-yl)-1H-pyrazol-1-yl]azetidin-3-l}acetonitrile] | 3.2 | 0.005 to 0.02 | 0.01 to 0.05
18 | N#CCC1(n2cc(-c3ncnc4[nH]ccc34)cn2)CN(C2CCN(C(=O)c3ccc(F)c(F)c3F)CC2)C1 [Example 46, {3-[4-(7H-pyrrolo[2,3-d]pyrimidin-4-yl)-1H-pyrazol-1-yl]-1-[1-(2,3,4-trifluorobenzoyl)piperidin-4-yl]azetidin-3-yl}acetonitrile] | 6.3 | ≤ 0.005 | 0.01 to 0.05
19 | CN(C)c1ccc(S(=O)(=O)N2CCC(N3CC(CC#N)(n4cc(-c5ncnc6[nH]ccc56)cn4)C3)CC2)cc1C#N [Example 250, 5-[(4-{3-(cyanomethyl)-3-[4-(7H-pyrrolo[2,3-d]pyrimidin-4-yl)-1H-pyrazol-1-yl]azetidin-1-yl}piperidin-1-yl)sulfonyl]-2-(dimethylamino)benzonitrile] | 4.7 | ≤ 0.005 | 0.01 to 0.05
20 | N#CCC1(n2cc(-c3ncnc4[nH]ccc34)cn2)CN(C2CCN(C(=O)c3ccsc3Br)CC2)C1 [Example 75, {1-{1-[(2-bromo-3-thienyl)carbonyl]piperidin-4-yl}-3-[4-(7H-pyrrolo[2,3-d]pyrimidin-4-yl)-1H-pyrazol-1-yl]azetidin-3-yl}acetonitrile] | 3.4 | ≤ 0.005 | ≤ 0.01
21 | N#CCC1(n2cc(-c3ccnc4[nH]ccc34)cn2)CN(C2CCN(C(=O)Nc3ccc(F)cc3C(F)(F)F)CC2)C1 [Example 303, 4-{3-(Cyanomethyl)-3-[4-(1H-pyrrolo[2,3-b]pyridin-4-yl)-1H-pyrazol-1-yl]azetidin-1-yl}-N-[4-fluoro-2-(trifluoromethyl)phenyl]piperidine-1-carboxamide] | 19.7 | ≤ 0.005 | 0.05 to 0.1
22 | N#CCC1(n2cc(-c3ncnc4[nH]ccc34)cn2)CN([C@@H]2CCN(C(=O)c3ccnc(C(F)(F)F)c3F)C[C@@H]2F)C1 (relative stereo) [Example 361, {1-{cis-3-Fluoro-1-[3-fluoro-2-(trifluoromethyl)isonicotinoyl]piperidin-4-yl}-3-[4-(7H-pyrrolo[2,3-d]pyrimidin-4-yl)-1H-pyrazol-1-yl]azetidin-3-yl}acetonitrile] | 20.9 | ≤ 0.005 | 0.05 to 0.1
23 | N#CCC1(n2cc(-c3ccnc4[nH]ccc34)cn2)CN(C2CCN(C(=O)c3cncc(C(F)(F)F)n3)CC2)C1 [Example 300, [3-[4-(1H-pyrrolo[2,3-b]pyridin-4-yl)-1H-pyrazol-1-yl]-1-(1-{[6-(trifluoromethyl)pyrazin-2-yl]carbonyl}piperidin-4-yl)azetidin-3-yl]acetonitrile] | 11.7 | 0.005 to 0.02 | > 0.1
